Reference: ChEMBL document CHEMBL4020748, “Benzoxazolinone aryl sulfonamides as potent, selective Nav1.7 inhibitors with in vivo efficacy in a preclinical pain model” (Bioorg Med Chem Lett, 2017)
Blank lines part the entries; values can stand above or below the molecule they belong to. Activity calls are given as the source filed them. The rule behind the calls is not given here.

Assays:
[1] = Selectivity ratio of IC50 for human Nav1.5alpha expressed in HEK293 cells to human Nav1.7alpha expressed in HEK293 cells
[2] = biological target: T1, Sodium channel protein type 9 subunit alpha (Homo sapiens, UniProt Q15858); experiment: Inhibition of 50% inactivated human Nav1.7alpha expressed in HEK293 cells incubated for 5 mins measured at 10 secs interval by PatchXpress automated electrophysiology method; assay type: cell-based
[3] = biological target: Sodium channel protein type 5 subunit alpha (Homo sapiens, UniProt Q14524); experiment: Inhibition of 50% inactivated human Nav1.5alpha expressed in HEK293 cells incubated for 5 mins measured at 10 secs interval by PatchXpress automated electrophysiology method; assay type: ADME, cell-based
Sequence of Sodium channel protein type 5 subunit alpha (Q14524 whole entry): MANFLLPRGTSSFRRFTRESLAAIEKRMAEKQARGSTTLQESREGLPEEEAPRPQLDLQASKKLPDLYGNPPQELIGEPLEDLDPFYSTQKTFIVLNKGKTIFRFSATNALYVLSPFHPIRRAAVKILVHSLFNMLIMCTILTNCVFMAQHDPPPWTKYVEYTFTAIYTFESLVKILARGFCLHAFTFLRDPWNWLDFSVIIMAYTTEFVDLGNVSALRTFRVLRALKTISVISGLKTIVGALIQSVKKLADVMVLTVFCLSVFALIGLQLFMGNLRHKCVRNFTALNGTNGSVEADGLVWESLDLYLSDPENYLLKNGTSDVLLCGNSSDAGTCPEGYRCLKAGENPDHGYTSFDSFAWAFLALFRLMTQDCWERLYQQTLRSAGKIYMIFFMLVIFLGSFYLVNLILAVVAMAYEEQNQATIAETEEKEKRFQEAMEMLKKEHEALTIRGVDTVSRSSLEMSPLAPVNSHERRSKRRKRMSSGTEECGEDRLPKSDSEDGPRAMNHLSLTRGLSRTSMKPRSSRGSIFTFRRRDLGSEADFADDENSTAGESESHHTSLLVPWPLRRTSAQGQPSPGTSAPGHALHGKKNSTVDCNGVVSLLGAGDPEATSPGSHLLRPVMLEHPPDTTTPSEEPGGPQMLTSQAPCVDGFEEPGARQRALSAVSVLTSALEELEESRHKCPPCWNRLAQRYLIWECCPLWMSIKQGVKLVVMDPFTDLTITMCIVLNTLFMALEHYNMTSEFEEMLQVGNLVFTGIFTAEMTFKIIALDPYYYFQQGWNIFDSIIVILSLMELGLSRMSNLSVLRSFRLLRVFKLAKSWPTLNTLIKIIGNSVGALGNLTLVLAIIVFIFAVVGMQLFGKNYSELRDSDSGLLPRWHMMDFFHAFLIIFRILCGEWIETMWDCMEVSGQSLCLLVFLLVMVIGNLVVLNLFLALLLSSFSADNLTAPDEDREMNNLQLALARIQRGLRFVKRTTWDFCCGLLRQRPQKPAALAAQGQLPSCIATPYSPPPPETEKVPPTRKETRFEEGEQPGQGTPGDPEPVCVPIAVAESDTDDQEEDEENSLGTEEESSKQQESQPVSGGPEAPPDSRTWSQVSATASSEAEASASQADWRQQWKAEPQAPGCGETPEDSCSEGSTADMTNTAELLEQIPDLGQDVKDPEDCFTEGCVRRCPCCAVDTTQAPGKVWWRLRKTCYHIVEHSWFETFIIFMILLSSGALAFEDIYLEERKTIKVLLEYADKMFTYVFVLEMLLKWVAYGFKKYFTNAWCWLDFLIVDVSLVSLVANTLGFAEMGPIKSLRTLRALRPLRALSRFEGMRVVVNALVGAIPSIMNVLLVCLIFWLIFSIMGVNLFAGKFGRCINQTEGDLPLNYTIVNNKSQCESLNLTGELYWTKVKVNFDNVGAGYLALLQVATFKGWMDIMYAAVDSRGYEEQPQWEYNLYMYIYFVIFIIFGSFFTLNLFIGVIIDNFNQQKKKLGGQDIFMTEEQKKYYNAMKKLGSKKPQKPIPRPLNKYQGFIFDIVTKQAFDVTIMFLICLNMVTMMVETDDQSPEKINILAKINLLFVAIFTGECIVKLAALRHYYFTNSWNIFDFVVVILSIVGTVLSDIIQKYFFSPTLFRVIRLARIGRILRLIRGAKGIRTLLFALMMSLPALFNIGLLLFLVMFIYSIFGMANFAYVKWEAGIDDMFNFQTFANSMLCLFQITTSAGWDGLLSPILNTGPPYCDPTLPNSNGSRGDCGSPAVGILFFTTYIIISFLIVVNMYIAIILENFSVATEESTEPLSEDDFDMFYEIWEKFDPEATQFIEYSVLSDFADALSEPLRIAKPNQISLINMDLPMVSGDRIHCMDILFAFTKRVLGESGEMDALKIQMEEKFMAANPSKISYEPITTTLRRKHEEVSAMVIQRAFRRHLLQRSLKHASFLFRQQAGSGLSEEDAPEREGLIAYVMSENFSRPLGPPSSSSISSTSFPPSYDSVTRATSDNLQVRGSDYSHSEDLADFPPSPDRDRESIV

[4] = Fraction unbound in C57BL/6 mouse plasma at 100 mg/kg, sc; assay type: ADME, organism-based
Mus musculus [5] = experiment: Analgesic activity in C57BL/6 mouse assessed as unbound concentration required for 50% reduction in formalin-induced nociceptive behavior at 100 mg/kg, sc pretreated for 90 mins followed by formalin challenge measured after 20 to 35 mins; assay type: functional
Rattus norvegicus = experiment: Unbound plasma clearance in Wistar Hannover rat at 2 mg/kg, iv; assay type: ADME, organism-based; conditions: in vivo
[6] = Half life in Wistar Hannover rat at 2 mg/kg, iv; assay type: ADME, organism-based; conditions: in vivo
[7] = Ratio of fIC50 for analgesic activity in formalin-induced nociceptive C57BL/6 mouse model assessed as reduction in nociceptive behavior to IC50 for 50% inactivated mouse Nav1.7alpha
[8] = Apparent permeability of the compound; assay type: physicochemical; conditions: not told
Mus musculus [9] = experiment: Analgesic activity in C57BL/6 mouse assessed as reduction in formalin-induced nociceptive behavior at 100 mg/kg, sc pretreated for 90 mins followed by formalin challenge measured after 20 to 35 mins; assay type: functional, organism-based
[10] = biological target: T2, Sodium channel protein type 9 subunit alpha (Mus musculus, UniProt Q62205); experiment: Inhibition of 50% inactivated mouse Nav1.7alpha incubated for 5 mins measured at 10 secs interval by PatchXpress automated electrophysiology method
T2 sequence (Q62205 whole entry): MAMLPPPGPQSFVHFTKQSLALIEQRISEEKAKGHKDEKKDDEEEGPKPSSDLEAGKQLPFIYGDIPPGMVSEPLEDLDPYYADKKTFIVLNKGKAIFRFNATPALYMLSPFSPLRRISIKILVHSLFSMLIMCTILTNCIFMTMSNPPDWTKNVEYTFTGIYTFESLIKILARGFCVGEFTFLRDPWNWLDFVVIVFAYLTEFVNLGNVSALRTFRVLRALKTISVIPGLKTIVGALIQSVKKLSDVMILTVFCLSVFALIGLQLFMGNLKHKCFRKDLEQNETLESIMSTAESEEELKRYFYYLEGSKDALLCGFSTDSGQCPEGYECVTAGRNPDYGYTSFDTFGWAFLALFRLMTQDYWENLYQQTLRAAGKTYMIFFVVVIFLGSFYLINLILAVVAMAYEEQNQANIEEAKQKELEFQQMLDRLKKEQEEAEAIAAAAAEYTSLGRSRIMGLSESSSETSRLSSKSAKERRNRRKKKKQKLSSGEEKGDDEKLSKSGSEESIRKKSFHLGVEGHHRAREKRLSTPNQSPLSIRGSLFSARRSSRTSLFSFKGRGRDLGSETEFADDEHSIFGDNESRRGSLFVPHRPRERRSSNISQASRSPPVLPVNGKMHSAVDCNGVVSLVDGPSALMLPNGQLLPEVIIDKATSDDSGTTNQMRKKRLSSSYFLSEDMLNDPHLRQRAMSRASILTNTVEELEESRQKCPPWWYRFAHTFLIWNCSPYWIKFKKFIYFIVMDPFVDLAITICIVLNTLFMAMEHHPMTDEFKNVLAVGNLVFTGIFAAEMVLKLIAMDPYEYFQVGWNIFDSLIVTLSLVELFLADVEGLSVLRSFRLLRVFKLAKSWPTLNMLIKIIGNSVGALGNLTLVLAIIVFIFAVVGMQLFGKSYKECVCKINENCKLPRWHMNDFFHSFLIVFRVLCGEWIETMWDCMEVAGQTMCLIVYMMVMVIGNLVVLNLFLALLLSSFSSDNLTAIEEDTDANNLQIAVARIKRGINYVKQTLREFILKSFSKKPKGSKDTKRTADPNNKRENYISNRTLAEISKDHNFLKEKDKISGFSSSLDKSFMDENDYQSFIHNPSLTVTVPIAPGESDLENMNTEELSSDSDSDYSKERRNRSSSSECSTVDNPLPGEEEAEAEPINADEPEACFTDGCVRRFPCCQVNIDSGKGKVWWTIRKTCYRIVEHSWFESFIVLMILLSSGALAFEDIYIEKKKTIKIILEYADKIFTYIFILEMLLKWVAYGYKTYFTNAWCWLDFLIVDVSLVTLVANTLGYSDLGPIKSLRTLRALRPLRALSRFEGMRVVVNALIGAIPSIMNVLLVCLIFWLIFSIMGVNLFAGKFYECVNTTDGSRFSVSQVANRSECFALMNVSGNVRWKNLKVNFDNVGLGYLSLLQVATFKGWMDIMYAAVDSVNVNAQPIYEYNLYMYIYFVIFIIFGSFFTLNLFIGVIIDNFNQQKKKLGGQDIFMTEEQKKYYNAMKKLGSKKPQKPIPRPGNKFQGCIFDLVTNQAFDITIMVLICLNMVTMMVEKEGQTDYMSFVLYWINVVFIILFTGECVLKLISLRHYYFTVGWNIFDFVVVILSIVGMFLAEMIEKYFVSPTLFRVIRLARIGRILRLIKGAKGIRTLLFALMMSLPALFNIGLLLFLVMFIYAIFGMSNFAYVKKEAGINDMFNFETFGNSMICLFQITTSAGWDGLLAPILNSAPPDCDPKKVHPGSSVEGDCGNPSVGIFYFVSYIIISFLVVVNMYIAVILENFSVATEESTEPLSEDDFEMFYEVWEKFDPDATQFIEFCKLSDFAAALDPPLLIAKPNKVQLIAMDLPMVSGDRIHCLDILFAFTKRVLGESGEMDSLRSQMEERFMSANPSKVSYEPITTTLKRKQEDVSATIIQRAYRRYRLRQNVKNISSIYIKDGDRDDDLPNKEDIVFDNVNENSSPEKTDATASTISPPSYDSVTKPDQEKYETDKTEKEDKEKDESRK

[11] = Oral bioavailability in Wistar Hannover rat at 10 mg/kg; assay type: ADME, organism-based; conditions: in vivo
[12] = biological target: Voltage-dependent L-type calcium channel subunit alpha-1C (Homo sapiens, UniProt Q13936); experiment: Activity at Cav1.2 (unknown origin)
Mus musculus [13] = experiment: Analgesic activity in C57BL/6 mouse assessed as reduction in formalin-induced nociceptive behavior administered subcutaneously pretreated for 90 mins followed by formalin challenge measured up to 30 mins; assay type: functional
[14] = biological target: Sodium channel protein type 2 subunit alpha (Homo sapiens, UniProt Q99250); experiment: Inhibition of Nav1.2 (unknown origin)
[15] = biological target: T1, Sodium channel protein type 9 subunit alpha; experiment: Inhibition of NaV1.7 channel in human DRG neurons assessed as reduction of TTX-sensitive current by whole cell patch clamp assay
[16] = Ratio of drug level in brain to plasma in rat; assay type: ADME
[17] = Activity at CYP450 (unknown origin); assay type: ADME; conditions: human
[18] = biological target: T3, Nuclear receptor subfamily 1 group I member 2 (Homo sapiens, UniProt O75469); experiment: Activity at PXR (unknown origin); assay type: ADME
T3 sequence (O75469 whole entry): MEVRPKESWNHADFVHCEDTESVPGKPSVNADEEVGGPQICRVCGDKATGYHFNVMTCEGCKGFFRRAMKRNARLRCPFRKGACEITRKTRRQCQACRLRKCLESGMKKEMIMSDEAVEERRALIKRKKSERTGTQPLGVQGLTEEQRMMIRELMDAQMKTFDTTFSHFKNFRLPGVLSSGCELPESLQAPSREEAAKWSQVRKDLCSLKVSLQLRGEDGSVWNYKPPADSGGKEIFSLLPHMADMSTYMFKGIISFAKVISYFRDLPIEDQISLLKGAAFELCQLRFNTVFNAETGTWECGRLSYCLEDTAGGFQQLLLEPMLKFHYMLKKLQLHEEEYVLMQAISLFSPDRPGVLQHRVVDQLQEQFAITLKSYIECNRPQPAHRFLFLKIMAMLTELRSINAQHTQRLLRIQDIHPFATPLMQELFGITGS

Mus musculus [19] = experiment: Analgesic activity in C57BL/6 mouse assessed as reduction in formalin-induced nociceptive behavior at 100 mg/kg, sc pretreated for 90 mins followed by formalin challenge measured up to 5 mins; assay type: functional, organism-based
[20] = biological target: Sodium channel protein type 9 subunit alpha (Rattus norvegicus, UniProt O08562); experiment: Inhibition of NaV1.7 channel in rat DRG neurons assessed as reduction of TTX-sensitive sodium current by whole cell patch clamp assay
[21] = Ratio of drug level in CSF to plasma in rat; assay type: ADME
[22] = Fraction unbound in Wistar Hannover rat plasma; assay type: ADME, cell-free
[23] = biological target: T2, Sodium channel protein type 9 subunit alpha; experiment: Inhibition of NaV1.7 channel in mouse DRG neurons assessed as reduction of TTX-sensitive current by whole cell patch clamp assay
[24] = biological target: Voltage-gated inwardly rectifying potassium channel KCNH2 (Homo sapiens, UniProt Q12809); experiment: Activity at human ERG
Sequence of Voltage-gated inwardly rectifying potassium channel KCNH2 (Q12809 whole entry): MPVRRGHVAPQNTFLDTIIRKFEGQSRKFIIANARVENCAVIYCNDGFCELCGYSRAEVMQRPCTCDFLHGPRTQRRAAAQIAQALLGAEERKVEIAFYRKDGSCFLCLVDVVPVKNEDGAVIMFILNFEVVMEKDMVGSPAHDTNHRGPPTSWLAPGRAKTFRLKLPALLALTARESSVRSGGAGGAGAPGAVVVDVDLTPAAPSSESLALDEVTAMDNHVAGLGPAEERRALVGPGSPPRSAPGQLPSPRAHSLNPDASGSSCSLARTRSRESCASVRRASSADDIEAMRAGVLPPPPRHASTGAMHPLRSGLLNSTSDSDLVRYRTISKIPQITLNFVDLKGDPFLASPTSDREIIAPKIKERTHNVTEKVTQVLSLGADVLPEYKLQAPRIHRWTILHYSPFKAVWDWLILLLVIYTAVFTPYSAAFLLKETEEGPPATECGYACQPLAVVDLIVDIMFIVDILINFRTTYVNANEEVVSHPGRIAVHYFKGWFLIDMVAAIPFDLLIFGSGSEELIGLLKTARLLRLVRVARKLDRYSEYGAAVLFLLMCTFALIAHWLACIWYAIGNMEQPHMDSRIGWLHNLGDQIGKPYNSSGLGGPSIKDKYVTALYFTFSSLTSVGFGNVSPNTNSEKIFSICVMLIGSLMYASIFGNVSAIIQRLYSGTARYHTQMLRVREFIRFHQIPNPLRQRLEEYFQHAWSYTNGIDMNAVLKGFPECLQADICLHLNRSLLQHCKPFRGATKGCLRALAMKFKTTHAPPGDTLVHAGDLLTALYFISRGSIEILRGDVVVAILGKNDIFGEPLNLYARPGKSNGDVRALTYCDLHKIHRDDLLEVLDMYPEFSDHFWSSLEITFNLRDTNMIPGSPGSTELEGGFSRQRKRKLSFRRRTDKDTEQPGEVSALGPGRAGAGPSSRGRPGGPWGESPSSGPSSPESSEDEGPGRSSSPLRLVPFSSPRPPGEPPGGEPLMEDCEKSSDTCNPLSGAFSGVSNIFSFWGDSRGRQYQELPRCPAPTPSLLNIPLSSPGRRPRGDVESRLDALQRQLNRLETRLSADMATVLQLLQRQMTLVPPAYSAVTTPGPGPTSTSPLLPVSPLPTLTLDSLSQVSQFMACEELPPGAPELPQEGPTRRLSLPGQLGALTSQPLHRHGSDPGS

Compound: C[C@H](c1ccccc1)n1c(=O)oc2cc(S(=O)(=O)Nc3ncns3)ccc21
- Ratio IC50 [1]: 287

Compound: C[C@H](c1cccc2c1CNCC2)n1c(=O)oc2cc(S(=O)(=O)Nc3cc(Cl)ccn3)c(F)cc21
- Ratio IC50 [1]: 88

Compound: O=c1oc2cc(S(=O)(=O)Nc3ncns3)ccc2n1Cc1ccccc1
- Ratio IC50 [1]: >62
- IC50 [3]: > 30000 nM

Compound: C[C@H](c1cccc2c1CNCC2)n1c(=O)oc2cc(S(=O)(=O)Nc3ccc(F)cn3)c(F)cc21
- Ratio IC50 [1]: 108

Compound: O=S(=O)(Nc1ncns1)c1ccc2c(cnn2Cc2ccccc2)c1
- Ratio IC50 [1]: 6

The next lines start with results.

- IC50 [2]: 970 nM
Compound: O=c1sc2cc(S(=O)(=O)Nc3ncns3)ccc2n1Cc1ccccc1
- Ratio IC50 [1]: >31
- IC50 [3]: > 30000 nM

- fraction unbound [4]: 0.145
- CL free (Rattus norvegicus): 170 mL/min/kg
- half-life [6]: 3 h
- IC50 [2]: 39 nM
- Papp [8]: 4 ×10⁻⁶ cm/s
- IC50 (Mus musculus [9]): 7400 nM
- IC50 [10]: 11 nM
- bioavailability [11]: 50%
Compound: C[C@H](c1ccccc1CN)n1c(=O)oc2cc(S(=O)(=O)Nc3cccc(F)n3)c(F)cc21
- fIC50 (Mus musculus [5]): 1.1 µM
- Ratio IC50 [1]: 850
- Ratio [7]: 100

- IC50 [2]: 190 nM
Compound: O=c1oc2cc(S(=O)(=O)Nc3ncns3)ccc2n1Cc1cccc2c1CNCC2
- Ratio IC50 [1]: >158

- fraction unbound [4]: 0.065
- CL free (Rattus norvegicus): 360 mL/min/kg
- IC50 [14]: 29 nM
- half-life [6]: 0.8 h
- IC50 [15]: 31 nM
- BPR [16]: 1%
- Activity [17]: Not Active
- IC50 [2]: 21 nM
- Activity [18]: Not Active
- Papp [8]: < 2 ×10⁻⁶ cm/s
- IC50 (Mus musculus [9]): 23000 nM
- IC50 [20]: 2370 nM
- Ratio [21]: 0%
- fraction unbound [22]: 0.133
- IC50 [10]: 30 nM
- IC50 [23]: 82 nM
- bioavailability [11]: 2%
Compound: C[C@H](c1cccc2c1CNCC2)n1c(=O)oc2cc(S(=O)(=O)Nc3ncns3)ccc21
- fIC50 (Mus musculus [5]): 1.5 µM
- Activity [12]: Not Active
- Activity (Mus musculus [13]): Dose-dependent effect
- Ratio IC50 [1]: 1381
- Ratio [7]: 50
- Activity (Mus musculus [19]): Active
- Activity [24]: Not Active

- CL free (Rattus norvegicus): 300 mL/min/kg
- half-life [6]: 1.9 h
- IC50 [2]: 150 nM
- Papp [8]: 2.5 ×10⁻⁶ cm/s
- bioavailability [11]: 30%
Compound: C[C@H](c1cccc2c1CNCC2)n1c(=O)oc2cc(S(=O)(=O)Nc3cccc(F)n3)c(F)cc21
- Ratio IC50 [1]: 210

- IC50 [2]: 815 nM
Compound: O=C1COc2cc(S(=O)(=O)Nc3ncns3)ccc2N1Cc1ccccc1
- Ratio IC50 [1]: >37
- IC50 [3]: > 30000 nM
